From patent publication US12637468B2, “Substituted [1,2,4]triazolo[4,3-b]pyridazines as GABAA receptor modulators” (SHANGHAI SIMR BIOTECHNOLOGY CO., LTD., priority 2019, dated 2026)

Target: T1, α5-GABAA receptor (Homo sapiens, UniProt P18507+P31644)
T1 construct: expressed in transfected cells; host or cells: HEK293, monoclonal stably transfected line
Test: Cell-level screening: whole cell patch clamp, inverse agonist efficacy on α5-GABAA receptor expressed in HEK293
Type: cell-based
Details: drug 100 nM, GABA 0.05 μM, HEK293 expressing α5, β3 and γ2 subunits, clamped at −60 mV; read-out: Compound inverse agonist efficacy %
Method: The inventors used electrophysiological methods to determine the inverse agonist efficacy of the drugs to be tested on the α5-GABAA receptor. The detailed methods are as follows:
Different subunits of GABAA receptors were expressed in human […] cell line 293 (HEK293) cell line. The cells were cultured in a culture medium and used as a cell model for screening pain inhibiting drugs. The α, β and γ subunits are necessary to form complete functional GABAA receptors. In this embodiment, the inventors had established the following cell model: α5 subunit (see GenBank Accession No. NM_000810.3 for protein sequences), β3 subunit (see GenBank Accession No. NM_000814.5 for protein sequences) and γ2 subunit (see GenBank Accession No. NM_000816.3 for protein sequences) were expressed in HEK293 cell line at the same time, followed by screening the monoclonal cell line. This cell line contained α5-GABAA receptor and had complete GABAA receptor function.
The monoclonal stably transfected HEK-293 cells expressing α5-GABAA receptor were cultured in 10 cm culture dishes and passaged when the cells grew to 80%-90%. During passaging, the culture medium was aspirated first, then 3 mL of DPBS phosphate buffer salt (Gibco™) was added to the culture dishes, and the culture dishes were shaken slightly, and DPBS was aspirated. 1 mL of trypsin (TrypLE Express, Gibco™) was added thereto, and the cells were digested at 37° C. for 1-2 minutes. Then 3 mL of complete medium (DMEM+10% FBS (Gibco™)) was added and the cells at the bottom of the culture dishes were dispersed. The cell suspension were transferred to a 15 mL centrifugal tube (Corning) and then centrifuged at 200 g for 3 minutes. The supernatant was discarded, 4 mL of complete medium was added, and the cells were gently blown and resuspended for use. If cell passaging was performed, the cell suspension was diluted at a ratio of 1:5 or 1:10. If cells for electrophysiology use were prepared, the cell suspension was diluted in a ratio of 1:12, then added into a 24-well dish (Corning™) in which glass slides were placed and pretreated with Poly-D-Lysine, and the cells were tested after being attached to the walls. The culture time of cells for electrophysiology use was no more than 48 hours.
Drug concentration setting: the final drug concentration used in drug screening was 100 nM, and the GABA concentration range was 0.05 μM. The final drug concentrations used in the dose-inversal agonistic efficiency (%) test were 0.3 nM, 3 nM, 10 nM, 30 nM, 100 nM and 300 nM. The whole cell patch clamp technique was used in electrophysiological experiments, which could refer to the literature (I. Lecker, Y. Yin, D. S. Wang and B. A. Orser, (2013) Potentiation of GABAA receptor activity by volatile anaesthetics is reduced by α5-GABAA receptor-preferring inverse agonists, British Journal of Anaesthesia 110 (S1): i73-i81). The components of extracellular solution (ECS) for electrophysiology use were as follows: 150 mM NaCl, 5 mM KCl, 2.5 mM CaCl2), 1 mM MgCl2, 10 mM HEPES and 10 mM glucose (pH 7.4); electrode internal solutions for electrophysiology use were as follows: 140 mM CsCl, 11 mM EGTA, 10 mM HEPES, 2 mM CaCl2), 1 mM MgCl2, 4 mM MgATP, 2 mM TEA (pH 7.3). The signal acquisition used an EPC-10 amplifier and the PatchMaster software (HEKA). The recording electrode was drawn using borosilicate glass, and the electrode resistance was 4 to 6 MΩ. The ALA-VC3-8PP™ system was used for extracellular administration. Separate cells that grew independently was selected for recording. During recording, the cell membrane potential was clamped at −60 mV. During experiment, an extracellular solution was applied to the cells for about 20 seconds. When the baseline reached to a stable state, the extracellular solution was switched to GABA. Then the current induced by GABA could be detected. […]

T1 sequence (P31644 32-462): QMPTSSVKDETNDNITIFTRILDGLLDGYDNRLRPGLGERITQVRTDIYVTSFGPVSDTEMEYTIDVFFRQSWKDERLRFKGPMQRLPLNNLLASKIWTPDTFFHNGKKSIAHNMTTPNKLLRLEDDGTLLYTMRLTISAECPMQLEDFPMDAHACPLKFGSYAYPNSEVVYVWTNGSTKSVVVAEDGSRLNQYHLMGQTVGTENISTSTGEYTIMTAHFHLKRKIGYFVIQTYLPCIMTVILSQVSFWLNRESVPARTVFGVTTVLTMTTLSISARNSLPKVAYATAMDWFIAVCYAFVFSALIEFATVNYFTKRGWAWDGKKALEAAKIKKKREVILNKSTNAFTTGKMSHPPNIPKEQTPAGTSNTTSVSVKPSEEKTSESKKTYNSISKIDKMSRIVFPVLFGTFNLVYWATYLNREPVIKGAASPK
T1 sequence (P28472 26-473 partner): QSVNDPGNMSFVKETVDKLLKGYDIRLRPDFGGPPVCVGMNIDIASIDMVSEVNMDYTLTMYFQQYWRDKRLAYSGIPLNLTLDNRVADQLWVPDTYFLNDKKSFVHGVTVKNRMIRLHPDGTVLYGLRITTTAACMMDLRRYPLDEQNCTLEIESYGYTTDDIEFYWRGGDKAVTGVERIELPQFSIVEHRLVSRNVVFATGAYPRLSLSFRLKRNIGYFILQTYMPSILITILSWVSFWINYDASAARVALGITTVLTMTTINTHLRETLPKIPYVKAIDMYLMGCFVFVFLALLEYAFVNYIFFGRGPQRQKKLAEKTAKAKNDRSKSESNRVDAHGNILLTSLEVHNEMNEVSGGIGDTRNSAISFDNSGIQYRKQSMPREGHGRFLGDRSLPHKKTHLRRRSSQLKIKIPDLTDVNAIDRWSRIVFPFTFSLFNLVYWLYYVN
T1 sequence (P18507 40-467 isoform P18507-1 limits assumed): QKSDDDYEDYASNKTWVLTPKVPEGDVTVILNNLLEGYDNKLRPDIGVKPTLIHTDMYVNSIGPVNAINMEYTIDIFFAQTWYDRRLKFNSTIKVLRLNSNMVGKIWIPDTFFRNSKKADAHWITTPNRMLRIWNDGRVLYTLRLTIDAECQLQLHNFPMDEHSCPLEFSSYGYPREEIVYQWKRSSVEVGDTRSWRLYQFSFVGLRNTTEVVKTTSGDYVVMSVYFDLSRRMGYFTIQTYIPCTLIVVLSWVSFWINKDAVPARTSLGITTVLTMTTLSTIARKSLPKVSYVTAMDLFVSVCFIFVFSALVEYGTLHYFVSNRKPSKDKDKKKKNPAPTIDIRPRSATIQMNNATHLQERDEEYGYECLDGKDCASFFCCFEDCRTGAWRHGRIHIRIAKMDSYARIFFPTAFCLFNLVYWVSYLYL

Row | Structure (SMILES) | inhibition at 0.1 µM
1 | CCNC(=O)c1ccc(COc2nn3c(-c4cc(C)on4)nnc3cc2OCC)nc1 [Embodiment 12, 6-(((7-Ethoxy-3-(5-methylisoxazol-3-yl)-[1,2,4]triazolo[4,3-b]pyridazin-6-yl)oxy)methyl)-N-ethylnicotinamide] | 29.6%
2 | CCOc1ccc(COc2nn3c(-c4cc(C)on4)nnc3cc2OC)nc1 [Embodiment 23] | 41.2%
3 | Cc1cc(-c2nnc3cc(OCC4CC4)c(OCc4ccccn4)nn23)no1 [Embodiment 14] | 19.4%
4 | COc1cc2nnc(-c3cc(C)on3)n2nc1OCc1ccc(OC(F)F)cn1 [Embodiment 24] | 35%
5 | COc1cc2nnc(-c3cc(C)on3)n2nc1OCc1ccc2c(cnn2Cc2cc(C)on2)n1 [Embodiment 224] | 46.7%
6 | COc1nccc(COc2nn3c(-c4cc(C)on4)nnc3cc2OC)n1 [Embodiment 72] | 54.3%
7 | COc1cc2nnc(-c3cc(C)on3)n2nc1OCc1cnc(OCC2CCCO2)cn1 (stereo not drawn) [Embodiment 178] | 36.7%
8 | CCn1ccc2nc(COc3nn4c(-c5cc(C)on5)nnc4cc3OC)ccc2c1=O [Embodiment 148] | 69.6%
9 | CCNC(=O)c1ccc(COc2nn3c(-c4cc(C)on4)nnc3cc2OC)nc1 [Embodiment 35] | 39.3%
10 | CCOc1nccc2nc(COc3nn4c(-c5cc(C)on5)nnc4cc3OC)ccc12 [Embodiment 145] | 51.3%
11 | COc1cc2nnc(-c3cc(C)on3)n2nc1OCc1ccc2ncn(C)c2n1 [Embodiment 101] | 32.9%
12 | COCCCn1ccc2nc(COc3nn4c(-c5cc(C)on5)nnc4cc3OC)ccc2c1=O [Embodiment 139] | 49%
13 | COc1cccc(COc2nn3c(-c4cc(C)on4)nnc3cc2OC)n1 [Embodiment 38] | 32%
14 | COc1ccc2nc(COc3nn4c(-c5cc(C)on5)nnc4cc3OC)ccc2c1 [Embodiment 136] | 37.3%
15 | CCn1cccc(COc2nn3c(-c4cc(C)on4)nnc3cc2OC)c1=O [Embodiment 76] | 41.6%
16 | COc1ccc(C(F)(F)F)nc1COc1nn2c(-c3cc(C)on3)nnc2cc1OC [Embodiment 62] | 35.7%
17 | COCCCOc1nnc(COc2nn3c(-c4cc(C)on4)nnc3cc2OC)cc1C [Embodiment 155] | 50.1%

Row | Structure (SMILES) | inhibition at 0.1 µM
18 | COc1cc2nnc(-c3cc(C)on3)n2nc1OCc1ccnc2ccnn12 [Embodiment 65] | 55.4%
19 | COc1cc2nnc(-c3cc(C)on3)n2nc1OCc1ccc2nn(C3COC3)cc2n1 [Embodiment 226, 3-(7-Methoxy-6-((2-(oxetan-3-yl)-2H-pyrazolo[4,3-b]pyridin-5-yl)methoxy)-[1,2,4]triazolo[4,3-b]pyridazin-3-yl)-5-methylisoxazole] | 45.9%
20 | COc1ccc(COc2nn3c(-c4cc(C)on4)nnc3cc2OC)nc1 [Embodiment 37] | 42.1%
21 | COc1cc2nnc(-c3cc(C)on3)n2nc1OCc1ccc2c(=O)n(C3COC3)ccc2n1 [Embodiment 144] | 42%
22 | COc1cc2nnc(-c3cc(C)on3)n2nc1OCc1ccc(OC2COC2)cn1 [Embodiment 175] | 36%
23 | COc1cc2nnc(-c3cc(C)on3)n2nc1OCc1ccc(C2CCNC2)cn1 (stereo not drawn) [Embodiment 96] | 38.8%
24 | COc1cc2nnc(-c3cc(C)on3)n2nc1OCc1ccc2nn(CCc3ccccc3)cc2n1 [Embodiment 230, 3-(7-Methoxy-6-(((2-phenethyl-2H-pyrazolo[4,3-b]pyridin-5-yl]methoxy])-[1,2,4]triazolo[4,3-b]pyridazin-3-yl)-5-methylisoxazole] | 57.2%
25 | COc1cc2nnc(-c3cc(C)on3)n2nc1OCc1ccc(C2CCNCC2)cn1 [Embodiment 116] | 44.9%
26 | COc1cc2nnc(-c3cc(C)on3)n2nc1OCc1cnc(OC2CCOCC2)cn1 [Embodiment 177] | 56.5%
27 | CCn1nc2ccc(COc3nn4c(-c5cc(C)on5)nnc4cc3OC)nc2c1C [Embodiment 244] | 75.1%
28 | COCCOc1ccnc(COc2nn3c(-c4cc(C)on4)nnc3cc2OC)c1 [Embodiment 10] | 37.1%
29 | COc1cc2nnc(-c3cc(C)on3)n2nc1OCc1ccc2c(ccn2C2COC2)n1 [Embodiment 250] | 47.4%
30 | COc1cnc(COc2nn3c(-c4cc(C)on4)nnc3cc2OC)cc1OC [Embodiment 60] | 45.8%
31 | COc1cc2nnc(-c3cc(C)on3)n2nc1OCc1ccc(OCCCC#N)cn1 [Embodiment 8] | 57.8%
32 | Cc1cc(-c2nnc3cc(OC(F)F)c(OCc4ccccn4)nn23)no1 [Embodiment 54] | 43.5%
33 | COc1cc2nnc(-c3cc(C)on3)n2nc1OCc1ccc(Cl)cn1 [Embodiment 20] | 42.9%

Results, then the compound that gave them:

Row | inhibition at 0.1 µM | Structure (SMILES)
34 | 50.2% | COc1cc2nnc(-c3cc(C)on3)n2nc1OCc1ccc2c(n1)CCN(C)C2=O [Embodiment 142]
35 | 58% | CCN1Cc2nc(COc3nn4c(-c5cc(C)on5)nnc4cc3OC)ccc2C1=O [Embodiment 67]
36 | 49.6% | COc1cc2nnc(-c3cc(C)on3)n2nc1OCc1ccc2c(n1)CCN(C(=O)CC#N)C2 [Embodiment 143]
37 | 41.5% | COc1cc2nnc(-c3cc(C)on3)n2nc1OCc1ccc2c(n1)CCN(CC13CC(C#N)(C1)C3)C2 [Embodiment 194]
38 | 41.8% | COc1cc2nnc(-c3cc(C)on3)n2nc1OCc1cccc(C2(F)CCNC2)n1 (stereo not drawn) [Embodiment 125]
39 | 40.8% | COc1cc2nnc(-c3cc(C)on3)n2nc1OCc1ccc2c(n1)CCN(c1nnc(C)o1)C2 [Embodiment 192]
40 | 63.7% | COc1cc2nnc(-c3cc(C)on3)n2nc1OCc1ccc2c(ncn2C)n1 [Embodiment 118]
41 | 39% | COc1cc2nnc(-c3cc(C)on3)n2nc1OCc1ccc2c(n1)CN(C1CCOC1)C2 (stereo not drawn) [Embodiment 254]
42 | 45.9% | COc1cc2nnc(-c3cc(C)on3)n2nc1OCc1ccc2c(n1)CCN(C(=O)C1CC1)C2 [Embodiment 81]
43 | 48.8% | COc1cc2nnc(-c3cc(C)on3)n2nc1OCc1ccc2c(n1)CCN(S(C)(=O)=O)C2 [Embodiment 209]
44 | 51.8% | COc1cc2nnc(-c3cc(C)on3)n2nc1OCc1ccc2cnn(C)c2n1 [Embodiment 220]
45 | 38.3% | COCC(C)(C)N1CCc2nc(COc3nn4c(-c5cc(C)on5)nnc4cc3OC)ccc2C1 [Embodiment 190]
46 | 45.4% | COc1cc2nnc(-c3cc(C)on3)n2nc1OCc1ccc2c(n1)CN(C1COC1)C2 [Embodiment 255]
47 | 48.3% | COc1cc2nnc(-c3cc(C)on3)n2nc1OCc1ccc2c(n1)CCN(C(=O)NC1CC(F)(F)C1)C2 [Embodiment 201, N-(3,3-Difluorocyclobutyl)-2-(((7-methoxy-3-(5-methylisoxazol-3-yl)-[1,2,4]triazolo[4,3-b]pyridazin-6-yl)oxy)methyl)-7,8-dihydro-1,6-naphthyridine-6(5H)-carboxamide]
48 | 40% | COc1cc2nnc(-c3cc(C)on3)n2nc1OCc1ccn2nccc2n1 [Embodiment 64]
49 | 44% | COc1cc2nnc(-c3cc(C)on3)n2nc1OCc1ccc2c(n1)CCN(c1cc(C)on1)C2 [Embodiment 191]
50 | 45.8% | COc1cc2nnc(-c3cc(C)on3)n2nc1OCc1ccc2c(n1)CCN(C1CC(C#N)C1)C2 (stereo not drawn) [Embodiment 195]
51 | 26.6% | COc1cc2nnc(-c3cc(C)on3)n2nc1OCc1cccc(N2CCOCC2)n1 [Embodiment 2]
